PubChem BioAssay AID1259407 (Chemical Carcinogenesis Research Information System (CCRIS), 2018)
Active and inactive are the calls of the source. No rule for the calls is given here.

System: CCRIS mutagenicity, Ames/micronucleus/aberration tests
Assay: CCRIS mutagenicity studies

## COc1cc(CNC(=O)CCCC/C=C/C(C)C)ccc1O
Test System: AMES SALMONELLA TYPHIMURIUM, Strain/Indicator: TA1535, Metabolic Activation: NONE, Method: DIRECT PLATE
  mutagenic call: inactive; negative
Test System: AMES SALMONELLA TYPHIMURIUM, Strain/Indicator: TA1535, Metabolic Activation: NONE, Method: PREINCUBATION
  mutagenic call: inactive; negative
Test System: AMES SALMONELLA TYPHIMURIUM, Strain/Indicator: TA1535, Metabolic Activation: RAT LIVER S-9, AROCLOR 1254, Method: PREINCUBATION
  mutagenic call: inactive; negative
Test System: AMES SALMONELLA TYPHIMURIUM, Strain/Indicator: TA1535, Metabolic Activation: RAT LIVER S-9, AROCLOR 1254, Method: STANDARD PLATE
  mutagenic call: inactive; negative
Test System: AMES SALMONELLA TYPHIMURIUM, Strain/Indicator: TA1535, Metabolic Activation: RAT, LIVER, S-9, AROCLOR 1254, Method: DIRECT PLATE
  mutagenic call: inactive; negative
Test System: AMES SALMONELLA TYPHIMURIUM, Strain/Indicator: TA1535, Metabolic Activation: RAT, LIVER, S-9, AROCLOR 1254, Method: PREINCUBATION
  mutagenic call: inactive; negative
Test System: AMES SALMONELLA TYPHIMURIUM, Strain/Indicator: TA1537, Metabolic Activation: HAMSTER, LIVER, S-9, AROCLOR 1254, Method: STANDARD PLATE
  mutagenic call: inactive; negative
Test System: AMES SALMONELLA TYPHIMURIUM, Strain/Indicator: TA1537, Metabolic Activation: NONE, Method: DIRECT PLATE
  mutagenic call: inactive; negative
Test System: AMES SALMONELLA TYPHIMURIUM, Strain/Indicator: TA1537, Metabolic Activation: NONE, Method: PREINCUBATION
  mutagenic call: inactive; negative
Test System: AMES SALMONELLA TYPHIMURIUM, Strain/Indicator: TA1537, Metabolic Activation: NONE, Method: STANDARD PLATE
  mutagenic call: inactive; negative
Test System: AMES SALMONELLA TYPHIMURIUM, Strain/Indicator: TA1537, Metabolic Activation: RAT LIVER S-9, AROCLOR 1254, Method: PREINCUBATION
  mutagenic call: inactive; negative
Test System: AMES SALMONELLA TYPHIMURIUM, Strain/Indicator: TA1537, Metabolic Activation: RAT LIVER S-9, AROCLOR 1254, Method: STANDARD PLATE
  mutagenic call: inactive; negative
Test System: AMES SALMONELLA TYPHIMURIUM, Strain/Indicator: TA1537, Metabolic Activation: RAT, LIVER, S-9, AROCLOR 1254, Method: DIRECT PLATE
  mutagenic call: inactive; negative
Test System: AMES SALMONELLA TYPHIMURIUM, Strain/Indicator: TA1537, Metabolic Activation: RAT, LIVER, S-9, AROCLOR 1254, Method: PREINCUBATION
  mutagenic call: inactive; negative
Test System: AMES SALMONELLA TYPHIMURIUM, Strain/Indicator: TA1537, Metabolic Activation: RAT, LIVER, S-9, AROCLOR 1254, Method: STANDARD PLATE
  mutagenic call: inactive; negative
Test System: AMES SALMONELLA TYPHIMURIUM, Strain/Indicator: TA1538, Metabolic Activation: HAMSTER, LIVER, S-9, AROCLOR 1254, Method: STANDARD PLATE
  mutagenic call: inactive; negative
Test System: AMES SALMONELLA TYPHIMURIUM, Strain/Indicator: TA1538, Metabolic Activation: NONE, Method: STANDARD PLATE
  mutagenic call: inactive; negative
Test System: AMES SALMONELLA TYPHIMURIUM, Strain/Indicator: TA1538, Metabolic Activation: RAT, LIVER, S-9, AROCLOR 1254, Method: STANDARD PLATE
  mutagenic call: inactive; negative
Test System: CHINESE HAMSTER V-79, Strain/Indicator: V-79/8-AZAGUANINE, Metabolic Activation: NONE
  mutagenic call: inactive; negative
Test System: CHINESE HAMSTER V-79, Strain/Indicator: V-79/8-AZAGUANINE, Metabolic Activation: RAT, LIVER, S-9, AROCLOR
  mutagenic call: inactive; negative
Test System: E. COLI, Strain/Indicator: WP2UVRA, Metabolic Activation: NONE, Method: PREINCUBATION
  mutagenic call: inactive; negative
Test System: E. COLI, Strain/Indicator: WP2UVRA, Metabolic Activation: NONE, Method: STANDARD PLATE
  mutagenic call: inactive; negative
Test System: E. COLI, Strain/Indicator: WP2UVRA, Metabolic Activation: RAT LIVER S-9, AROCLOR 1254, Method: PREINCUBATION
  mutagenic call: inactive; negative
Test System: E. COLI, Strain/Indicator: WP2UVRA, Metabolic Activation: RAT LIVER S-9, AROCLOR 1254, Method: STANDARD PLATE
  mutagenic call: inactive; negative
Test System: E. COLI, Strain/Indicator: WP2UVRA, Metabolic Activation: RAT, LIVER, S-9, AROCLOR 1254, Method: DIRECT PLATE
  mutagenic call: inactive; negative
Test System: E. COLI, Strain/Indicator: WP2UVRA, Metabolic Activation: RAT, LIVER, S-9, AROCLOR 1254, Method: PREINCUBATION
  mutagenic call: inactive; negative
Test System: E.COLI, Strain/Indicator: WP2UVRA, Metabolic Activation: NONE, Method: DIRECT PLATE
  mutagenic call: inactive; negative
Test System: MOUSE LYMPHOMA, Strain/Indicator: L5178Y (TK+/TK-), Metabolic Activation: RAT, LIVER, S-9, AROCLOR 1254, Method: SUSPENSION/PLATE
  mutagenic call: active; positive
Test System: MOUSE LYMPHOMA, Strain/Indicator: L5178Y(TK+/-), Metabolic Activation: NONE, Method: SUSPENSION/PLATE (4 H EXPOSURE)
  mutagenic call: active; positive
Test System: MOUSE LYMPHOMA, Strain/Indicator: L5178Y(TK+/-), Metabolic Activation: NONE, Method: SUSPENSION/PLATE (24 H EXPOSURE)
  mutagenic call: inactive; negative
Test System: MOUSE LYMPHOMA, Strain/Indicator: L5178Y(TK+/-), Metabolic Activation: RAT LIVER S-9, AROCLOR 1254, Method: SUSPENSION/PLATE
  mutagenic call: active; positive
